Source: US20170258761A1, “Pharmaceutical Compositions Comprising Canagliflozin” (Sandoz AG, priority 2014, published 2017)
≈ marks a conversion by molar mass, not a printed value. Where two headings read alike, the source gives them in different places. Each block holds one compound with its values, some of them ahead of it.

Legend:
Assay type in all cases: physicochemical
[1] = Equilibrium aqueous solubility at 25 °C (HPLC); conditions: water, 25 ± 1° C.
Description: As described in Example 5 of the co-pending application PCT/EP2014/059281, the aqueous solubilities of forms HxA and HxB of the present invention and the hemihydrate of Canagliflozin described in WO 2008/069327 A1 were determined by the equilibrium solubility method. Saturated solutions of Canagliflozin, obtained by stirring 50 mg of each crystalline form in 50 mL water were prepared and stirred at 25±1° C. After 60 minutes of stirring, three samples were withdrawn, filtered through 0.45 μm syringe filters and the filtrates were directly analyzed by HPLC.
Using six concentration points of known Canagliflozin concentrations a calibration line was fitted by linear regression.

[2] = Equilibrium solubility of Canagliflozin in McIlvaine buffer, FaSSIF and FeSSIF with excipients; conditions: 37 °C, thermodynamic from solid
Description: Inhibition of precipitation and supersaturation effects were also evaluated in more biorelevant dissolution media, FaSSIF and FeSSIF, prepared according to Dressman et al. (Dressman et al. Dissolution testing as a prognostic tool for oral drug absorption: immediate release dosage forms. Pharm Res, 1998)). Excipients were used in 1 mg/ml concentration. […] All tests were performed in duplicate.

[3] = Influence of water activity on physical stability of Canagliflozin; conditions: samples exposed to 30, 40, 50, 60 RH %, then 50° C. for 14 days
Description: The influence of water activity on physical stability of Canagliflozin were further tested. Prior storage at stress stability conditions samples were exposed to different relative humidity (30, 40, 50 and 60 RH %). After storage at elevated temperature (50° C.) for 14 days samples were tested for water activity and polymorphic form. It was established that Canagliflozin was physically stable when water activity was≦0.3. Results confirmed that appropriate dryness of the samples is critical for product stability.
The influence of water activity of the formulation on physical stability of Canagliflozin was further tested. Prior storage at stress stability conditions samples were exposed to different relative humidity (30, 40, 50 and 60 RH %). After storage at elevated temperature (50° C.) for 14 days samples were tested for water activity and polymorphic form. It was established that Canagliflozin was physically stable when water activity was≦0.4. Results confirmed that appropriate dryness of the samples is critical for product stability (see Table 14, showing Examples 2 and 7 as exemplary samples).

[4] = Equilibrium solubility of Canagliflozin in McIlvaine buffer, FaSSIF and FeSSIF with excipients; conditions: 37 °C, thermodynamic from solid; remark: listed apart in the source
[5] = Water activity of excipients, normal and dried; conditions: for Water activity dry (#): excipient dried for 4 hours at ambient temperature in a vacuum chamber; for Water activity normal (*): excipient exposed to 40% RH for 24 hours at ambient temperature
Description: The influence of water activity of each excipient on chemical and physical stability of Canagliflozin was further tested.
In Table 12, the normal (*) excipients mean that they were exposed to 40% RH for 24 hours at ambient temperature; and the dry (#) excipients mean that they were dried for 4 hours at ambient temperature in a vacuum chamber.

[6] = Precipitation inhibition screening of excipients with nephelometer; conditions: McIlvaine buffer pH 6.8
Description: In vitro high-throughput precipitation inhibition screening with nephelometer was performed for different excipients in McIlvaine buffer pH 6.8 at 1%, 0.1%, and 0.01% (w/v) according to the procedure published in Petrusevska et al (Petrusevska et al. Evaluation of light scattering and turbidity microtiter plate-based methods for detection of the excipient-mediated drug precipitation inhibition. Eur J Pharm Biopharm, 2013). The ratio between turbidity signal for each tested concentration of selected excipient with Canagliflozin and plain buffer containing only Canagliflozin were determined.

[7] = Solubility and dynamic solubility of amorphous Canagliflozin versus hemihydrate; conditions: 37° C., shaking, HPLC
Description: Additionally dynamic solubility in water was determined at 0.5 h, 1 h and 24 h time points (37° C., shaking, HPLC determination).

[8] = Chemical stability in binary mixtures with excipients; conditions: 1 g + 1 g excipient of Table 9, tablets, 50° C., sealed glass vial, 14 days
Description: Canagliflozin degradation products were followed by high performance liquid chromatography using the following chromatographic method. Samples were dissolved in a mixture of 60 w/w % acetonitrile in buffer pH=5 (0.77 g of CH3OONH4 in 1 L of water, pH adjusted to pH=5 with acetic acid) to achieve a concentration of about 0.2 mg/ml of Canagliflozin. The sample solution was injected into an UHPLC system with a BEH C18 column (1.7 micrometer particles) using binary gradient elution. Mobile phase A consisted of mixture of 70 w/w % buffer with pH=5 in acetonitrile and mobile phase B consisted of acetonitrile. Gradient elution was performed according to the following program: mobile phase A (%)/time (min): 100%/0 min; 100%/5 min; 14%/[…]; 40%/35 min; 15%/40 min; 15%/45 min. The detector was set to a wavelength of 290 nm and impurities quantitated as area % with no response factors applied. Stability of samples was monitored by exposing them to elevated temperature (50° C.) in a sealed glass vial for 14 days. After storage, samples were analysed and the amounts of degradation products measured by UHPLC. The extent of degradation was determined by subtracting the total amount of degradation products of a […] from the total amount of degradation of a […].

SMILES: Cc1ccc([C@@H]2O[C@H](CO)[C@@H](O)[C@H](O)[C@H]2O)cc1Cc1ccc(-c2ccc(F)cc2)s1 [1-(β-D-glucopyranosyl)-4-methyl-3-[5-(4-fluorophenyl)-2-thienylmethyl]benzene]
solubility at 60 min ([1]; 25 °C, thermodynamic from solid, 60 minutes of stirring, read-out: Abs. Solubilities): 18 µg/mL (≈ 0.0405 mM)

SMILES: OC[C@H]1O[C@@H](O[C@H]2[C@H](O)[C@@H](O)C(O)O[C@@H]2CO)[C@H](O)[C@@H](O)[C@H]1O (stereo partly drawn) [Lactose anhydrous]
Water activity dry (#) [5]: 14.8
Water activity normal (*) [5]: 28.6

SMILES: CCCCCCCCCCCCCCCCCC(=O)[O-].CCCCCCCCCCCCCCCCCC(=O)[O-].[Mg+2] [Mg stearate]
Water activity dry (#) [5]: 15.9
Water activity normal (*) [5]: 26.6

SMILES: CCCCCCCCCCCCOS(=O)(=O)[O-].[Na+] [Texapon, Sodium Lauryl Sulfate]
time Canagliflozin supersaturation was sustained ([6]; excipient at highest concentration tested (1% w/v)): 10 min
rate of canagliflozin dissolution in the presence of excipient ([6]; highest concentration tested): fastest

More lines, main results first:

solubility thermodynamic at 24 h ([2]; FaSSIF, pH 6.5, aqueous with cosolvent or surfactant or cyclodextrin, with Texapon 1 mg/ml, 24 h, read-out: Equilibrium solubility in FaSSIF pH 6.5): 7980 µg/mL (≈ 18 mM)
solubility thermodynamic at 24 h ([2]; FaSSIF, pH 6.5, aqueous with cosolvent or surfactant or cyclodextrin, with Texapon + HPMC 603, each 1 mg/ml, 24 h, read-out: Equilibrium solubility in FaSSIF pH 6.5): 8480 ± 180 µg/mL
solubility thermodynamic at 24 h ([2]; FeSSIF, pH 5.5, aqueous with cosolvent or surfactant or cyclodextrin, with Texapon 1 mg/ml, 24 h, read-out: Equilibrium solubility in FeSSIF pH 5.5): 25000 ± 1340 µg/mL (≈ 56.2 mM)
solubility thermodynamic at 24 h ([2]; FeSSIF, pH 5.5, aqueous with cosolvent or surfactant or cyclodextrin, with Texapon + HPMC 603, each 1 mg/ml, 24 h, read-out: Equilibrium solubility in FeSSIF pH 5.5): 27800 ± 2350 µg/mL
solubility thermodynamic at 24 h ([2]; FeSSIF, pH 5.5, fessif, no excipient, 24 h incubation, read-out: Equilibrium solubility in FeSSIF pH 5.5): 21000 ± 1030 µg/mL (≈ 47.3 mM)
water activity at which Canagliflozin was physically stable ([3]; Example A (non-stoichiometric hydrate)): ≤ 0.3
water activity at which Canagliflozin was physically stable ([3]; Example B (amorphous formulation)): ≤ 0.4
solubility thermodynamic at 24 h ([4]; FaSSIF, pH 6.5, fassif, no excipient, 24 h incubation, read-out: Equilibrium solubility in FaSSIF pH 6.5): 5310 ± 970 µg/mL (≈ 11.9 mM)
solubility thermodynamic at 24 h ([4]; McIlvaine buffer, pH 6.5, aqueous buffer, buffer, no excipient, 24 h incubation, read-out: Equilibrium solubility in McIlvaine buffer pH 6.5): 21 ± 1 µg/mL (≈ 0.0472 mM)
solubility thermodynamic at 24 h ([4]; McIlvaine buffer, pH 6.5, aqueous with cosolvent or surfactant or cyclodextrin, with HPMC 606 1 mg/ml, 24 h, read-out: Equilibrium solubility in McIlvaine buffer pH 6.5): 62 ± 7 µg/mL (≈ 0.139 mM)
solubility thermodynamic at 24 h ([4]; McIlvaine buffer, pH 6.5, aqueous with cosolvent or surfactant or cyclodextrin, with Texapon 1 mg/ml, 24 h, read-out: Equilibrium solubility in McIlvaine buffer pH 6.5): 2850 ± 332 µg/mL (≈ 6.4 mM)
solubility thermodynamic at 24 h ([4]; McIlvaine buffer, pH 6.5, aqueous with cosolvent or surfactant or cyclodextrin, with Texapon + HPMC 603, each 1 mg/ml, 24 h, read-out: Equilibrium solubility in McIlvaine buffer pH 6.5): 2580 ± 36 µg/mL
SMILES: Cc1ccc([C@@H]2O[C@H](CO)[C@@H](O)[C@H](O)[C@H]2O)cc1Cc1ccc(-c2ccc(F)cc2)s1 [Canagliflozin, 1-(β-D-glucopyranosyl)-4-methyl-3-[5-(4-fluorophenyl)-2-thienylmethyl]benzene]

solubility compared to crystalline Canagliflozin hemihydrate ([7]; pH 1.2, 4.5 and 6.8): increased solubility
degradation products (impurities) in binary mixtures with excipients [8]: no increase in impurities was observed
SMILES: Cc1ccc([C@@H]2O[C@H](CO)[C@@H](O)[C@H](O)[C@H]2O)cc1Cc1ccc(-c2ccc(F)cc2)s1 [amorphous Canagliflozin, 1-(β-D-glucopyranosyl)-4-methyl-3-[5-(4-fluorophenyl)-2-thienylmethyl]benzene]
dynamic solubility in water compared to crystalline Canagliflozin hemihydrate ([7]; 0.5 h, 1 h and 24 h): increased solubility as well as dynamic solubility

Rel. Solubilities [1]: 100%
increased aqueous solubility compared to the crystalline hemihydrate of WO 2008/069327 A1 [1]: 10%
Abs. Solubilities ([1]; 60 minutes of stirring): 20 µg/mL
SMILES: Cc1ccc([C@@H]2O[C@H](CO)[C@@H](O)[C@H](O)[C@H]2O)cc1Cc1ccc(-c2ccc(F)cc2)s1 [form HxA, 1-(β-D-glucopyranosyl)-4-methyl-3-[5-(4-fluorophenyl)-2-thienylmethyl]benzene form HxA]

Rel. Solubilities [1]: 100%
increased aqueous solubility compared to the crystalline hemihydrate of WO 2008/069327 A1 [1]: 10%
Abs. Solubilities ([1]; 60 minutes of stirring): 20 µg/mL
SMILES: Cc1ccc([C@@H]2O[C@H](CO)[C@@H](O)[C@H](O)[C@H]2O)cc1Cc1ccc(-c2ccc(F)cc2)s1 [form HxB, 1-(β-D-glucopyranosyl)-4-methyl-3-[5-(4-fluorophenyl)-2-thienylmethyl]benzene form HxB]

Rel. Solubilities [1]: 90%
SMILES: Cc1ccc([C@@H]2O[C@H](CO)[C@@H](O)[C@H](O)[C@H]2O)cc1Cc1ccc(-c2ccc(F)cc2)s1 [hemihydrate of WO 2008/069327 A1 (=Hy0.5)] [1-(β-D-glucopyranosyl)-4-methyl-3-[5-(4-fluorophenyl)-2-thienylmethyl]benzene]
degradation products (impurities) in binary mixtures with excipients ([8]; listed as Canagliflozin hemihydrate): impurities were increased when containing excipients such as Syloid, PEG 6000 and Polyoxyl 40 hydrogenated castor oil
